# In patent US6358919B1 (priority 1997, dated 2002):
# Test system: influenza virus A/PR/8/34(H1N1)
# Assay: ELISA inhibition of influenza virus binding to immobilised GM3
# Conditions: 1 nmol GM3 per well, virus suspension 32 HAU, pre-incubated at 4° C. for two hours
smiles,measurement,value
CC(=O)N[C@H]1[C@H]([C@H](O)[C@H](O)CO)O[C@@](O[C@H]2[C@@H](O)[C@@H](CO)O[C@@H](O[C@H]3[C@H](O)[C@@H](O)C(O)O[C@@H]3CO)[C@@H]2O)(C(=O)O)C[C@@H]1O (stereo partly shown) [Sialyl lactose],IC50 per molecule,1.5e-07 mol
